Assay [1] deals with erythrocytes. As to conditions: in vitro model of radical-induced hemolysis; cited from earlier work.
In assay [2] the test system is Beta cells (Cell line: HIT-T15). As to the kind of experiment: HIT-T15 beta cell viability (trypan blue, Countess). It counts as cell-based. The settings on record: 6, 15 or 30 mM glucose 24 hours, with or without 5 mM ERT. On the procedure: Beta cells (Cell line: HIT-T15) were obtained from supplier ATCC. The cells were seeded in 24 well plate (300,000 cells/well). After overnight attaching, the medium was removed and the cells were washed with HBSS. […] After 1 hour incubation, glucose solution was added to a final concentration of 6, 15, or 30 mM in the wells. Subsequently, the cells were incubated for 24 hours. After incubation, all cell material including medium and HBSS was collected and centrifuged (5 minutes, 500×g). The supernatant was removed and the cells were resuspended in 500 μl HBSS. The cell suspensions were diluted 1:1 in 0.4% trypan blue dye and loaded in a Countess Chamber. The cells were counted using the Countess cell counter, which calculated the viability (function and activity) of the cells.

In assay [3] the test system is erythrocytes. As to the kind of experiment: Radical-induced hemolysis of erythrocytes. As to conditions: erythrocytes exposed to hyperglycemic conditions, 24 h incubation. In kind it is cell-based.
For assay [4] the following is noted: in vitro; cited from earlier work.
Assay [5] can be described thus: Human study in patients with Type 2 diabetes mellitus (blood glucose, insulin, C-peptide). As to conditions: Type 2 diabetes patients, 12 g three times daily 28 days; before vs 2 hrs after 12 g intake. It counts as in vivo. On the procedure:
A human study was conducted in patients with Type 2 diabetes mellitus. Patients were enrolled who were otherwise healthy patients with Type 2 diabetes mellitus as defined by fasting blood glucose >125 mg/dl or with ongoing treatment for Type 2 diabetes mellitus with the exception of insulin. […] Two hours after, blood drawings were taken again. […] After testing each variable for normality, a paired t-test was performed to determine statistical significance. For variables with a non-normal distribution, a Wilcoxon signed rank test was used. All analyses were performed using SPSS (IBM, version 19). Compliance was determined based on a count of empty sachets returned by study participants. Twenty-four subjects were enrolled and none withdrew from the study.

SMILES strings stand for the structures.

As for `OC[C@@H](O)[C@@H](O)CO` [ERT, meso-1,2,3,4-tetrahydroxybutane], the “onset of oxidative damage, ABTS-induced hemolysis” value in the assay on erythrocytes [1] was “able to delay the onset of oxidative damage”. Also, in assay [2], the “viability (function and activity) of HIT-T15 cells” value was “attenuated this decrease significantly”. In the assay on erythrocytes [3], the radical-induced hemolysis entry was “able to inhibit radical-induced hemolysis”. Besides, in assay [4], the hydroxyl radical scavenging result is listed as “effective in scavenging hydroxyl radicals” and the “superoxide or peroxynitrite scavenging activity” value was “does not possess any superoxide or peroxynitrite scavenging activity”. In assay [5], the “blood C-peptide levels” value is recorded as “increase in blood C-peptide levels”, the blood glucose levels result is recorded as “borderline significant decrease in blood glucose levels” and the blood insulin levels result is reported as “non-significant increase in insulin levels”.
